In patent US4734399A, “Growth hormone releasing factor analogs” (Hoffmann-La Roche Inc., priority 1986, dated 1988):

Legend:
rat pituitary cells = test: Stimulation of growth hormone production in rat pituitary cells in tissue culture (RIA for rat growth hormone); format: cell-based; conditions: for Potency Relative to GRF(1-44)-NH2: Exp. #GB 83, rat anterior pituitary cells, 4 hours of incubation, 0.8 to 200 fmol per ml, GH by RIA
Procedure: The assay for biological activity, which is based on the ability to stimulate production of growth hormone in rat pituitary cells in tissue culture, was performed as discribed in Example 2.
Pituitaries from 30-40 male Sprague-Dawley rats (175 g) were removed aseptically after decapitation. The anterior lobes were collected, washed 3 times in sterile Hepes buffer (0.025M) (pH 7.35) and dispersed at 37° C. in 20-30 ml Hepes buffer (pH 7.35) containing collagenase (4 mg per ml) and Dispase (Protease grade II, 2 mg per ml). After gentle 100-110 min vortexing and trituration by Pasteur pipette, the dispersed cells were separated by centrifugation (150×g, 4 min) and re-suspended in Hepes buffer containing neuraminidase ([…]), and 200 µg/ml ethylenediaminetetraacetic acid (EDTA) disodium salt, pH 7.35, for 10 min.
The cells were washed twice with plating medium and plated on multiwell-plates (1.5×10^5 cells per ml) using the following defined medium: F-12/DMEM/BGJ (6:3:1) (Gibco: 430-1700/430-1600/320-2591) with 2 g BSA/l., 2.38 g Hepes/1.50 mg PSN antibiotic mixture (Gibco Laboratories), 10 mg/l transferrin (Sigma T2252) with 1.83 g NaHCO3 /l (Baker 3506). The medium in each well was supplemented either with a sample of the novel GRF peptide or natural GRF(1-44)-NH2 at concentrations ranging from 0.8 to 200 fmol per ml of medium. Control wells contained no supplement. Plating was done with this medium added with 2% fetal calf serum to ensure rapid fixation of the cells.
On the fourth day, the cells were washed twice with the defined medium without fetal calf serum. Finally 900 μl of defined medium was added to each well plus 100 μl of the same medium containing each individual treatment, in triplicate. After 4 hours of incubation the medium was collected and diluted as required to conduct radioimmunoassay (RIAs) for rat growth hormone.
RIAs for rat growth hormone were conducted using Sinha's anti-murine GH immune serum and procedures according to the National Pituitary Agency using protein A to precipitate antibody antigen complex.

[1] = tested on: release of growth hormone; conditions: in vitro; Rivier et al., Nature 300: 276 (1982); cited from earlier work

## GRF(1-29)-NH2 [GRF(1-29)NH2]
Rat pituitary cells
  Potency Relative to GRF(1-44)-NH2: 0.5
[1]
  Intrinsic activity and potency on a weight for weight basis: full intrinsic activity and potency

## GRF(1-44)-NH2 [GRF(1-44)NH2]
Rat pituitary cells
  Potency Relative to GRF(1-44)-NH2: 1.0
Rat pituitary cells; vs natural GRF(1-44)-NH2 isolated from human pancreatic tumor (Salk Institute standard hGRF-NH2 (NL-A-10))
  Biological activity compared with natural GRF(1-44)-NH2: identical to the natural GRF(1-44)-NH2
